Laboratory results taken from PMC8348101, “Personal Glucose Meter for α-Glucosidase Inhibitor Screening Based on the Hydrolysis of Maltose” (Molecules, 2021).

Target: T1, α-glucosidase (Aspergillus niger, UniProt P56526)
T1 construct: gene aglA
T1 sequence (P56526 26-985): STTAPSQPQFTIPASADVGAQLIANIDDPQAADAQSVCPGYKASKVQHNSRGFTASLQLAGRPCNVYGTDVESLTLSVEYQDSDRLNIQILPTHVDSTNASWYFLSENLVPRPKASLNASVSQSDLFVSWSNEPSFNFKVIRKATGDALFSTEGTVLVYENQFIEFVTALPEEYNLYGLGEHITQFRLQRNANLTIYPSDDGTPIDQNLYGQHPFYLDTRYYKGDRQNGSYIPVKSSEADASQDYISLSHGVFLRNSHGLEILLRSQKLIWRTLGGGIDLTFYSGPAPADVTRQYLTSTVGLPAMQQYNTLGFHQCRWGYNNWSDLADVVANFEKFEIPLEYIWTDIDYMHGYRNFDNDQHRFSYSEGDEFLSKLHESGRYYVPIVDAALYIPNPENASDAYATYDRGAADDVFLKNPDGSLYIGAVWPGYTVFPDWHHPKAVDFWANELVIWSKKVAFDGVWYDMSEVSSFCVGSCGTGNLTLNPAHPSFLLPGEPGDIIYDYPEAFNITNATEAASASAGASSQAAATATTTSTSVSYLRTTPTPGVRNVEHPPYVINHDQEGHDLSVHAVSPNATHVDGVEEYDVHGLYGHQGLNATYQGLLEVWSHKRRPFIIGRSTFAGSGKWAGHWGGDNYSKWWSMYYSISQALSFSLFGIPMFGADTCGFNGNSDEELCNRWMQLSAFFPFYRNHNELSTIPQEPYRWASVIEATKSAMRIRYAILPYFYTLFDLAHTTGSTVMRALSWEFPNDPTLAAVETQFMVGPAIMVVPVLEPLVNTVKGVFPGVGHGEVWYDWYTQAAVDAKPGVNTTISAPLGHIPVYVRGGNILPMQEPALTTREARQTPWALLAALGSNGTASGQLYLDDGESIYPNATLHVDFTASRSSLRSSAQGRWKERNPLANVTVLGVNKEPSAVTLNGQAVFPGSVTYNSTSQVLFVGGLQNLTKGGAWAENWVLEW
Assay: personal glucose meter assay of maltose hydrolysis, single concentration […]
Assay type: biochemical

| SMILES | inhibition at 5000 µM [%] |
| --- | --- |
| O=Cc1ccc(O)c(O)c1 [protocatechualdehyde] | 36.8 ± 2.8 |
| OC[C@H]1O[C@@H](Oc2c(O)cc(O)cc2/C=C/c2ccc(O)cc2)[C@H](O)[C@@H](O)[C@@H]1O [TSG, 2,3,5,4′-tetrahydroxy stilbene-2-O-β-D-glucoside] | 27 ± 2 |
| O=C(/C=C/c1ccc(O)c2c1[C@H](C(=O)O)[C@@H](c1ccc(O)c(O)c1)O2)O[C@H](Cc1ccc(O)c(O)c1)C(=O)O [lithospermic acid] | 52.5 ± 3 |
